Earlier results as cited in patent publication US20120244588A1, “METHOD OF PRODUCING 3-HYDROXYPROPIONIC ACID USING MALONIC SEMIALDEHYDE REDUCING PATHWAY” (SAMSUNG ELECTRONICS CO., LTD., priority 2011, published 2012).

Columns and labels:
[1] = 25° C.

Row | Structure (SMILES) | solubility in water | pKa [1] | solubility in water relative to citric acid or malic acid
1 | O=C(O)CCO [3-HP, 3-hydroxypropionic acid] | very soluble | 4.51 | –
2 | O=C([O-])CCO.O=C([O-])CCO.[Ca+2] [calcium salt of 3-HP] | – | – | 100 times
